From US20140161767A1, “FOLLICLE-STIMULATING HORMONE (FSH)/LYTIC DOMAIN FUSION CONSTRUCTS AND METHODS OF MAKING AND USING SAME” (BOARD OF SUPERVISORS OF LOUISIANA STATE UNIVERSITY AND …, priority 2012, published 2014)

What was measured:
Panc-1 = assay: Cell viability after 4 hours (Cell Titer Glo), Panc-1; format: cell-based, human; details: 4 h incubation; read-out: Activities [μM] Panc1 (p18)
Procedure: (§1) Human ovarian cancer cell lines OVCAR-3 (p 41), SKOV-3 (p 35) and the human uterine sarcoma cell line MES-SA-Dx5 (p 61) (multi-drug resistant clone), the human pancreatic cancer cell line Panc-1 (passage number 18), and human triple negative breast cancer cell line MDA-MB-231 (passage number 47) were grown in ATCC recommended medium, 10% fetal bovine serum, 100 IU/ml penicillin, 100 microg/ml streptomycin. Cells were typically seeded (2,000 cells per well) into 96 well plates and media was replaced after 48 hours of incubation. […] Each Phor-18-hFSH-β81-89 conjugate provided in lyophilized form was dissolved in saline and added to cells. The duration of incubation was 4 hours at 37° C. Cell viability was assessed after 4 hours using a luminometric assays (Promega, Cell Titer Glo, G755B, lot #00000031421). Controls contained saline or 0.1% triton as reference for 0 and 100% cell death, respectively.
(§2) Data were processed and analyzed using GraphPad Prism version 5.00 for Windows, GraphPad Software, San Diego Calif. USA, www.graphpad.com”. Statistical analysis for significance was determined by a two-tailed Student's T-test. Each study was conducted to achieve an N of at least 6.
(§3) In vitro activities were expressed as IC50 values for each cell line, time point and compound tested that were calculated using the Hill equation (Graph Pad Prizm software).

[1] = test system: MDA-MB-435S.luc xenograft; assay: Mouse xenograft model of breast cancer, βCG fusion constructs; format: in vivo, mice; details: weekly bolus injections, days 13, 19, 25
Procedure: This example describes in vivo studies in a mouse xenograft model of breast cancer with various types and doses of βCG- and LHRH-fusion constructs.
Female Nu/Nu mice were injected subcutaneously with a MDA-MB-435S.luc/Matrigel HC suspension (1×10^6 cells). In brief, treatment started on day 13 after tumor cell injection and continued on day 19 and 25. […] The doses for weekly injections were 5, 1 and 0.01 mg/kg body weight, given as a bolus single injection.
The effect of cytolytic peptide injections on the primary tumors is illustrated in FIG. 8. In brief, the FIGS. 8A-8C show tumor volume during the course of the study for each individual peptide. FIGS. 8D-8G show tumor characteristics at necropsy: tumor volume (D), tumor weight (E), live tumor cells (F), tumor conditions (G).
Treatment efficacy was calculated as difference between measurements at the beginning of treatment compared to the measurement at the end of study (FIG. 8H-8I). […] Viability of cells in the tumors was determined at the end of the study when tumors were measured for luciferase activity.

MDA-MB-231 = assay: Cell viability after 4 hours (Cell Titer Glo), MDA-MB-231; format: cell-based, human; details: 4 h incubation; read-out: Activities [μM] MDA-MB-231 (p47)
Procedure: as §1, §2, §3

SKOV-3 = assay: Cell viability after 4 hours (Cell Titer Glo), SKOV-3; format: cell-based, human; details: 4 h incubation; read-out: Activities [μM] SKOV-3 (p35)
Procedure: as §1, §2, §3

OVCAR-3 = assay: IC50 in human cancer cell lines compared to cisplatinum: OVCAR-3; format: cell-based; details: ovarian cancer cell line
Procedure: MDA-MB-435S.luc cells were grown in Leibovitz's L 15 medium, 10% fetal bovine serum, 0.01 mg/ml bovine insulin, 100 IU/ml penicillin, 100 microg/ml streptomycin. The cells were cultured in tight closed flasks. The incubations were conducted using 96 well plates at 10,000 cells per well. Cells were typically seeded into 96 well plates and media was replaced after 48 hours of incubation. Each assay was conducted at increasing concentrations of 0, 0.001, 0.01, 0.05, 0.1, 0.5, 1, 2, 5, 10 and 100 micromolar doses of lytic peptide-binding domain conjugate. Each lytic peptide-binding domain conjugate provided in lyophilized form and was freshly dissolved in saline and added to cells. The duration of incubation was typically 24 h, and cell viability assays were conducted using formazan conversion assays (MTT assay). Controls contained saline or 0.1% triton as reference for 0 and 100% cell death, respectively.
To ascertain the IC50 of various fusion constructs on different human cancer cell lines compared to cisplatinum, IC50 of fusion constructs were evaluated as in Table 3.

MCF-7 xenograft = assay: MCF-7 breast cancer xenograft; format: in vivo, mice; details: MCF-7, 2 × 3 wk, 19 d
Procedure: In vivo efficacy studies were conducted as monotherapy, or a combination therapy with standard of care treatments in nude mice bearing human breast cancer xenografts: MDA-MB-435S.luc (s.c.), MCF-7 (estrogen receptor alpha positive), human ovarian cancer xenografts: OVCAR-3, (s.c.), human prostate cancer xenografts: PC-3 (androgen receptor negative).
Mice were sacrificed one week after the last injection and blood collected for chemistry panel, tumor weights and body weights were recorded. Part of the tumors were fixed in PBS buffered 10% formalin for histological evaluation.

MDA-MB-435 = assay: Fluorescence microscopy, mechanism of action in MDA-MB-435 cells; format: cell-based, human; details: 10 μM, 5 minutes exposure
Procedure: In brief, human breast cancer cells (MDA-MB-435, passage #252) were seeded onto culture dishes. The following markers were introduced prior to adding EP100: DRAQ5™ (Alexis Corporation)—blue—was used for staining of the nucleus and MnoTracker® Red CMXRos (M7512) (Molecular Probes, Inc. OR) were applied for visualizing intact mitochondria. Cell membranes were stained with wheat germ alexa fluor green conjugates (Molecular Probes, Inc. OR).
Cells were loaded first with Mitotracker dye, according to the manufacturers recommendation. […] Culture dishes with saline only served as controls. The supernatant was removed and the remaining cells prepared for fluorescence microscopy imaging.

MDA-MB-435S xenograft = assay: MDA-MB-435S xenograft, multiple dose regimen; format: in vivo, mice; details: 0.002 and 0.2 mg/kg
Procedure: In order to determine the minimal effective dose necessary to reduce MDA-MB-435S xenograft weights in a multiple dose regimen, Nu/Nu female mice, outbred strain, age 8 weeks (Charles River), were injected (s.c.) into the interscapular region with a MDA-MB-435S (passage #253)/Matrigel suspension (2×10^6 cells/mouse) as previously described above. […] The doses were given as a single bolus intravenous injection via lateral tail vein on days 15, 16, 17, 20, 21, 22, 23, 27, 28, 29, 30, 33, 34, 35, 36, 37, 38, 40, 41, 42 after tumor cell inoculation. Saline injections served as control groups.
Each treatment group consisted of 16 mice. During the entire study tumor volumes were recorded twice weekly. Final necropsy was conducted on day 45 after tumor cell injection. […] due to occlusion of the tail vein in most mice. At study endpoint body weight, tumor weights were determined and fixed in phosphate buffered 10% formalin.

Row | Substance | IC50 (Panc-1) | Tumor volume compared to saline controls [1] | IC50 (MDA-MB-231) | IC50 (SKOV-3) | IC50 (OVCAR-3) | Median Tumor Weight vs Saline P < 0.05 (dose, growth delay) (MCF-7 xenograft) | Plasma membrane (fluorescence microscopy) (MDA-MB-435) | Tumor response (MDA-MB-435S xenograft) | Histological examination of tumors (MDA-MB-435S xenograft; H&E)
1 | KFAKFAK KFAKFAK KFAK [Phor18] | 18.9 ± 0.2 µM | ineffective | 18.9 ± 0.8 µM | 21.7 ± 3.6 µM | – | – | – | – | –
2 | KFAKFAKKFAKFAKKFAKQHWSYGLRPG [Phor18-LHRH] | – | – | – | – | 3 ± 0.5 µM | 0.02 mg/kg growth | disintegration of the plasma membrane | tumor regression | eradication of tumor cells
